Experimental data as given in patent US10881060B2, “Endophytes and related methods” (Agriculture Victoria Services PTY LTD, priority 2010, dated 2021).

Test system: N. lolii (strain ST) mycelia
Experiment: Colchicine kill curve of endophyte mycelia
Type: cell-based
Conditions: grown 21 days
Protocol: Experiments were conducted to determine the range of colchicine concentrations in which the mycelia of the fungal endophyte N. lolii (strain ST) would grow successfully. Mycelia were grown in colchicine concentrations ranging from 0% to 1% for 21 days and monitored for growth (FIG. 15). At greater than or equal to 0.2% colchicine mycelium growth halted whereas at 0.1% or less colchicine mycelium growth was prolific.

COc1cc2c(c(OC)c1OC)-c1ccc(OC)c(=O)cc1[C@@H](NC(C)=O)CC2 [colchicine]
Colchicine concentration at which mycelium growth halted: greater than or equal to 0.2%
Colchicine concentration at which mycelium growth was prolific: ≤ 0.1%
